The source made the active and inactive calls. The rule behind the calls is not given here.
Assays:
Acetylcholinesterase = biological target: T1, Acetylcholinesterase (Bos taurus, UniProt P23795); assay: Inhibition of bovine AChE after 120 mins by Ellman's method
T1 sequence (P23795 whole entry): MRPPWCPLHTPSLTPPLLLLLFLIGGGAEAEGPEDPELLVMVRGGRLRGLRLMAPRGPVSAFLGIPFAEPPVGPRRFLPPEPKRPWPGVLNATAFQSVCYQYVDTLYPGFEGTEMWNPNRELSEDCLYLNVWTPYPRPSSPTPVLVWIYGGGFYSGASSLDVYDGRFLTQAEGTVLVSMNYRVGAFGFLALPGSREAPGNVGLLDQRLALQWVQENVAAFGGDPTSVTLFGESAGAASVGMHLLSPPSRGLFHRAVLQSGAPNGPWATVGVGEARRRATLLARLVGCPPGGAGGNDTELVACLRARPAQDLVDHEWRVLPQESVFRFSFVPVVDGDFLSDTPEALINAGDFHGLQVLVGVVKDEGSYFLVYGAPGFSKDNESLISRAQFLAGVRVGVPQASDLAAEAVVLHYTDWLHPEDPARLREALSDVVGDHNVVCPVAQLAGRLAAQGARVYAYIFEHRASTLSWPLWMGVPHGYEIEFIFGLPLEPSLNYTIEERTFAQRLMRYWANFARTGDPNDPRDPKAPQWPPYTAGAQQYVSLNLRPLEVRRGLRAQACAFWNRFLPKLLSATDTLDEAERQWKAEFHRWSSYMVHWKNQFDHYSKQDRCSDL

H9c2 [1] = assay: Prevention of apoptosis in rat H9c2 cells assessed as protection against oxidative stress-induced cytotoxicity at 100 nM […] by Alamar blue assay; type: functional
H9c2 [2] = assay: Prevention of apoptosis in rat H9c2 cells assessed as reduction in fall of mitochondrial membrane potential at 100 nM after 1 hr; type: functional; set-up: scale not given: the % may be the effect or the level left
[3] = Selectivity ratio of IC50 for equine BuChE to IC50 for bovine AChE
Butyrylcholinesterase = Butyrylcholinesterase (Equus caballus, UniProt Q9N1N9); assay: Inhibition of equine BuChE after 120 mins by Ellman's method
Sequence of Butyrylcholinesterase (Q9N1N9 whole entry): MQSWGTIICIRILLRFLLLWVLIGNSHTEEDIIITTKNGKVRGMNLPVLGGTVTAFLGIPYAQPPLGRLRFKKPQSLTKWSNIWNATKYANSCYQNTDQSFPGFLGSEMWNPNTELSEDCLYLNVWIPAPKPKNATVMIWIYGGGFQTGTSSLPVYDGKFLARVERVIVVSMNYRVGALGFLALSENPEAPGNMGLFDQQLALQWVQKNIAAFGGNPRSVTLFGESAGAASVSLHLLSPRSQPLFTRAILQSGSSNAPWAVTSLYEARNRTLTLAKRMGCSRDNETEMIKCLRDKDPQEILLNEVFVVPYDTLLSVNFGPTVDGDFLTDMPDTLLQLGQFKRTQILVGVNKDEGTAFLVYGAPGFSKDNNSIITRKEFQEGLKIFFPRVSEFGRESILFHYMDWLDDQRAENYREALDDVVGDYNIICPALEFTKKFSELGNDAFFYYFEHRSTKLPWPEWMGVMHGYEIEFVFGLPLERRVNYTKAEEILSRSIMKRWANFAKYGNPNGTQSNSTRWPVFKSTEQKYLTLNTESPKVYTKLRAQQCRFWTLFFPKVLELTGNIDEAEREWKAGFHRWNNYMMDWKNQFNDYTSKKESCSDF

[4] = Cytotoxicity against rat H9c2 cells assessed as cell viability in absence of H2O2; type: cell-based; set-up: concentration or dose not given beside the values; conditions: read-out: Activity
[5] = Antioxidant activity assessed as scavenging of glucose oxidase-generated H2O2 and hydroxyl radicals by chemiluminescence assay; type: functional
[6] = test system: Radical scavenging activity; assay: Antioxidant activity of the compound assessed as DPPH radical scavenging at 10 uM after 30 secs by spectrophotometry; type: functional
[7] = Antioxidant activity assessed as scavenging of morpholino sydononimine based nitric oxide release by chemiluminescence assay; type: functional
[8] = Antioxidant activity of the compound assessed as DHR radical scavenging activity at 10 uM by fluorescence assay; type: functional
Gallus gallus [9] = species on record: Gallus gallus; assay: Prevention of apoptosis in chick primary telencephalon neurons assessed as protection against serum deprivation-induced cytotoxicity at 1 to 10 uM by MTT assay; type: functional
Gallus gallus [10] = species on record: Gallus gallus; assay: Prevention of apoptosis in chick primary telencephalon neurons assessed as protection against serum deprivation-induced oxidative stress at 10 nM measured on day 8 by MTT assay; type: functional

| SMILES | IC50 (Acetylcholinesterase) [µM] | Activity (H9c2 [1]) | Activity (H9c2 [2]) [%] | Ratio IC50 [3] | IC50 (Butyrylcholinesterase) [µM] | viability [4] [%] | IC50 [5] [µM] | Activity [6] [%] | IC50 [7] [µM] | Activity [8] [%] | Activity (Gallus gallus [9]) | Activity (Gallus gallus [10]) |
| --- | --- | --- | --- | --- | --- | --- | --- | --- | --- | --- | --- | --- |
| CCN(C)C(=O)Oc1cccc2c1c(CCC(=O)OC)cn2C | 180 | – | – | – | – | – | – | – | – | – | – | – |
| C#CCN[C@@H]1CCc2ccc(OC(=O)N(C)CC)cc21 [LADOSTIGIL] | 30.3 | 58.5% | 32 | 0.06 | 0.48 | – | – | – | – | – | – | – |
| CCN(C)C(=O)Oc1cccc2c1C(CCC(=O)O)CN2 (stereo not given) | 19 | inactive | – | 0.016 | 0.3 | 93.4 | 1.59 | – | – | – | – | – |
| CN(C)C(=O)Oc1cccc2c1CCN2.Cl | 1.2 | 46.8% | – | 1.08 | 1.3 | – | 0.77 | – | – | – | – | – |
| CCN(C)C(=O)Oc1cccc2[nH]cc(CCC(=O)OC)c12 | 19.6 | – | – | 0.48 | 9.5 | – | – | – | – | – | – | – |
| CCN(C)C(=O)Oc1cccc2c1C(CCC(=O)OC)CN2C (stereo not given) | 58.7 | inactive | – | 0.11 | 6.8 | 97.3 | 3.13 | – | – | – | – | – |
| CCCCN(C)C(=O)Oc1ccc2c(c1)NCC2CCC(=O)OC.Cl (stereo not given) | 62.3 | 40.1% | 54 | 6.5 | 404 | 87.8 | 24.1 | – | – | – | – | – |
| COC(=O)CCC1CN(C)c2cc(OC(=O)N(C)c3ccc(OC)cc3)ccc21.Cl (stereo not given) | 17.4 | 33.3% | – | – | 372 | 106 | 2.24 | – | – | – | – | – |
| CCN(C)C(=O)Oc1ccc2c(c1)NCC2CCC(=O)OC (stereo not given) | – | – | – | 0.07 | – | – | – | 31.7 | – | – | – | – |
| CCN(C)C(=O)Oc1ccc2c(c1)N(C)CC2 | 418 | – | – | 0.14 | 58.7 | – | 1.15 | – | – | – | – | – |
| O=C(O)c1cc(O)c(O)c(O)c1 | – | – | – | – | – | – | – | 31.4 | – | – | – | – |
| CCN(C)C(=O)Oc1cccc2c1CCN2CCC(=O)OC | – | – | – | – | 0.7 | – | 0.3 | 27.8 | 8.49 | – | – | – |
| O=C(O)CCC1CNc2cc(O)ccc21 (stereo not given) | – | inactive | – | – | – | – | 2.34 | – | 1.34 | 41.9 | – | – |
| CN1CC(CCC(=O)O)c2ccc(O)cc21 (stereo not given) | – | – | – | – | – | – | 0.84 | – | 3.25 | 66.3 | – | – |
| O=C(O)CCC1CNc2cccc(O)c21 (stereo not given) | – | – | – | – | – | – | 1.44 | – | – | 19.1 | – | – |
| COc1ccc(N(C)C(=O)Oc2cccc3c2C(CCC(=O)O)CN3C)cc1 (stereo not given) | 125 | inactive | – | > 4.8 | > 600 | 101 | 10.2 | – | – | – | – | – |
| COC(=O)CCC1CNc2cccc(OC(=O)N(C)c3ccc(OC)cc3)c21.Cl (stereo not given) | 1.2 | 43.1% | – | 3.8 | 4.6 | 84.7 | 19 | 30.4 | 3.18 | – | – | – |
| COC(=O)CCC1CNc2cc(OC(=O)N(C)c3ccc(OC)cc3)ccc21.Cl (stereo not given) | – | 43.8% | – | 1.4 | 54 | – | 3.41 | – | – | – | – | – |
| COc1ccc(N(C)C(=O)Oc2cccc3c2C(CCC(=O)O)CN3)cc1 (stereo not given) | 37.8 | inactive | – | 11 | 417 | 95.5 | 4.33 | – | – | – | – | – |

| SMILES | IC50 (Acetylcholinesterase) [µM] | Activity (H9c2 [1]) | Activity (H9c2 [2]) [%] | Ratio IC50 [3] | IC50 (Butyrylcholinesterase) [µM] | viability [4] [%] | IC50 [5] [µM] | Activity [6] [%] | IC50 [7] [µM] | Activity [8] [%] | Activity (Gallus gallus [9]) | Activity (Gallus gallus [10]) |
| --- | --- | --- | --- | --- | --- | --- | --- | --- | --- | --- | --- | --- |
| CCN(C)C(=O)Oc1ccc2c(c1)N(CCC(=O)OC)CC2 | – | – | – | – | 6.8 | – | 0.22 | – | 2.18 | – | – | – |
| CC(=O)N[C@@H](CS)C(=O)O [ACETYLCYSTEINE] | – | 25.2% | 20 | – | – | – | – | – | – | – | – | – |
| COC(=O)CCC1CN(C)c2cccc(OC(=O)N(C)c3ccc(OC)cc3)c21 (stereo not given) | 246 | inactive | – | > 2.4 | > 600 | 107 | 15.3 | – | – | – | – | – |
| CCN(C)C(=O)Oc1cccc2c1C(CCC(N)=O)CN2.Cl (stereo not given) | 62 | 55.2% | – | 0.14 | 8.5 | 96 | 2.39 | – | – | – | – | – |
| COC(=O)CCC1CNc2cc(O)ccc21.Cl (stereo not given) | – | 50% | 87 | – | – | – | 1.34 | 28.2 | 1.38 | 52.1 | – | – |
| CCOC(=O)CCC1CNc2cccc(OC(=O)N(C)CC)c21 (stereo not given) | 40.2 | – | – | – | 0.56 | – | – | – | – | – | – | – |
| CCN(C)C(=O)Oc1ccc2c(c1)NCC2CCC(=O)OC.Cl (stereo not given) | 55.2 | 58.5% | 77 | – | 3.9 | 100 | 1.45 | – | 2.36 | – | – | – |
| CCCCN(C)C(=O)Oc1ccc2c(CCC(=O)OC)c[nH]c2c1 | – | 28.8% | 56 | – | – | – | – | – | – | – | – | – |
| CCN(C)C(=O)Oc1cccc2c1C(CCN)CN2 (stereo not given) | – | – | – | 0.5 | 0.2 | – | 0.07 | 36.3 | 2.13 | – | – | – |
| CCN(C)C(=O)Oc1cccc2c1NCC2CCC(=O)OC (stereo not given) | 61.6 | – | – | 0.00012 | 0.008 | – | – | – | – | – | – | – |
| CCN(C)C(=O)Oc1cccc2c1C(CCC(=O)OC)CN2.Cl (stereo not given) | 7.4 | 73% | – | – | 0.3 | 99.9 | 1.46 | – | 4.55 | – | – | – |
| CCCCN(C)C(=O)Oc1ccc2c(c1)N(C)CC2CCC(=O)OC (stereo not given) | 122 | – | – | 0.55 | 66.8 | – | 6.27 | – | – | – | – | – |
| O=c1c(O)c(-c2ccc(O)c(O)c2)oc2cc(O)cc(O)c12 [QUERCETIN] | – | 45.1% | – | – | – | – | 0.06 | 19.2 | 0.61 | 33.6 | – | – |
| COC(=O)CCc1c[nH]c2cc(OC(=O)N(C)c3ccc(OC)cc3)ccc12 | > 600 | 43.1% | 48.2 | – | – | – | – | – | – | – | – | – |
| CCN(C)C(=O)Oc1ccc2c(c1)NCC2CCC(=O)O.Cl (stereo not given) | 175 | 56.1% | – | 0.06 | 10 | 102 | 1.14 | – | – | – | – | – |
| COC(=O)CCC1CN(C)c2cccc(O)c21 (stereo not given) | – | – | – | – | – | – | 0.45 | – | – | 15.4 | – | – |
| CCN(C)C(=O)Oc1cccc([C@H](C)N(C)C)c1 [RIVASTIGMINE] | 0.62 | – | – | – | – | – | – | – | – | – | – | – |
| Cl.Oc1cccc2c1CCN2 | – | 38% | – | – | – | – | 1.15 | – | – | – | Active | Active |
| CCCCN(C)C(=O)Oc1cccc2c1C(CCC(=O)OC)CN2C.Cl (stereo not given) | – | 31.5% | – | 2.89 | 197 | 93.9 | 6.84 | – | – | – | – | – |

From ChEMBL document CHEMBL2177019, “Carbamate derivatives of indolines as cholinesterase inhibitors and antioxidants for the treatment of Alzheimer's disease” (J Med Chem, 2012)
